Where a name gives a salt, the structure may show the parent alone. One block for each molecule: values may come before it.
How the values were obtained:
[1] = molecular target: T1, human calcium receptor (Homo sapiens, UniProt P41180, R990G); assay: increases in [Ca^2+ ]i in HEK-293 cells expressing the human calcium receptor (fura-2 loaded HEK 293/pHuPCaR4.0 cells), % activity; assay type: cell-based
T1 construct: expressed in transfected cells; host or cells: HEK 293
T1 sequence (P41180 20-1078 R990G): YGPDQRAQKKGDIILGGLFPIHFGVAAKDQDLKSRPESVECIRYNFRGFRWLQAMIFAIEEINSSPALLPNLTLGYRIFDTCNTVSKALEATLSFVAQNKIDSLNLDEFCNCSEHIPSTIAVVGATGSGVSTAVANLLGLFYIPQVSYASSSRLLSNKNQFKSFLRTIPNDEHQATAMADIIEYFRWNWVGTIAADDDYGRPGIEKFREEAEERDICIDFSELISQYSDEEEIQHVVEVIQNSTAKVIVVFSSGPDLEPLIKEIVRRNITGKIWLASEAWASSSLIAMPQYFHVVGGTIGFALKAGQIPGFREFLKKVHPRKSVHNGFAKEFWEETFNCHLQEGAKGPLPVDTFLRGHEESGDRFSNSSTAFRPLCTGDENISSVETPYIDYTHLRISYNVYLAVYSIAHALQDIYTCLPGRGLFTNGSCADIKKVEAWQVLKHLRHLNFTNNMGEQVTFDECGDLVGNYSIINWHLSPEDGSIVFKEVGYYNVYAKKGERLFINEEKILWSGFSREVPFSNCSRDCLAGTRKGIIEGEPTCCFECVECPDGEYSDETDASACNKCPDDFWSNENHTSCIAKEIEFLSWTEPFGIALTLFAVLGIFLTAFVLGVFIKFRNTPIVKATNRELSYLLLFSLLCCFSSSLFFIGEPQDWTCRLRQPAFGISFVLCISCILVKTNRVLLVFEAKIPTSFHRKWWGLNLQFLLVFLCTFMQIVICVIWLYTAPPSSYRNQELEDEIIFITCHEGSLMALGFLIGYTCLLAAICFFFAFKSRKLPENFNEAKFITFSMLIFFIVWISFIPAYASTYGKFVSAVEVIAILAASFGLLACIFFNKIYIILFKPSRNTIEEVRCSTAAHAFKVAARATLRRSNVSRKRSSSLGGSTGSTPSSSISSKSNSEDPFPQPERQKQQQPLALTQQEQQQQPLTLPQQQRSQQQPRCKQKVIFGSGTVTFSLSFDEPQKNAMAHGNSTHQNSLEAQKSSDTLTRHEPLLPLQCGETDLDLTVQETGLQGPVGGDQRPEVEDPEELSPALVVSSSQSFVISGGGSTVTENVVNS

[2] = system: Parathyroid Cell Calcium Receptor; assay: EC50 in parathyroid cells or HEK 293/pHuPCaR4.0 cells loaded with fura-2; assay type: cell-based, calves and humans; details: parathyroid cells or HEK 293/pHuPCaR4.0, fura-2; cell type not given per value
Method: This section describes procedures used to obtain parathyroid cells from calves and humans, and to use the parathyroid cells to measure calcium receptor activity.
Human parathyroid glands, were obtained from patients undergoing surgical removal of parathyroid tissue for primary or uremic hyperparathyroidism (uremic HPT), and were treated similarly to bovine tissue.
Glands were trimmed of excess fat and connective tissue and then minced with fine scissors into cubes approximately 2-3 mm on a side. Dissociated parathyroid cells were prepared by collagenase digestion and then purified by centrifugation in Percoll buffer.
Primary culture also has the advantage that cells can be labeled with isotopes to near isotopic equilibrium, as is necessary for studies involving measurements of inositol phosphate metabolism.
ITS+ is a premixed solution containing insulin, transferrin, selenium, and bovine serum albumin (BSA)-linolenic acid (Collaborative Research, Bedford, Mass.). The cells were then transferred to plastic flasks (75 or 150 cm^2; Falcon) and incubated overnight at 37° C. in a humid atmosphere of 5% CO2. No serum is added to these overnight cultures, since its presence allows the cells to attach to the plastic, undergo proliferation, and dedifferentiate.
The cells were then pelleted, resuspended in the same buffer, but lacking the ester, and incubated a further 15 minutes at 37° C. The cells were subsequently washed twice with PCB containing 0.5 mM CaCl2 and 0.5% BSA and maintained at room temperature (about 20° C.). Immediately before use, the cells were diluted five-fold with prewarmed 0.5 mM CaCl2 -PCB to obtain a final BSA concentration of 0.1%. The concentration of cells in the cuvette used for fluorescence recording was 1-2×10^6 /ml.
The fluorescence of indicator-loaded cells was measured at 37° C. in a spectrofluorimeter (Biomedical Instrumentation Group, University of Pennsylvania, Philadelphia, Pa.) equipped with a thermostated cuvette holder and magnetic stirrer using excitation and emission wavelengths of 340 and 510 nm, respectively. […] To correct the calibration for dye leakage, cells were placed in the cuvette and stirred at 37° C. for 2-3 minutes. The cell suspension was then removed, the cells pelleted, and the supernatant returned to a clean cuvette. […] This estimate was subtracted from the apparent Fmin.
HEK 293 cells transfected with pHuPCaR4.0 were loaded with fura-2 by incubating the cells in Dulbecco's modified Eagle's media buffered with 20 mM HEPES containing about 5 μM […] for one hour at room temperature. Cell were then rinsed with Hank's balanced salt solution buffered with 20 mM HEPES containing 1 mM CaCl2 and 1 mM MgCl2. Compounds to be tested were then added to the cells and fluorescence was measured (excitation and emission wavelengths of 340 and 510 nm, respectively).

Structure (SMILES): CC(N[C@H](C)c1ccccc1)c1ccc2ccccc2c1 (stereo partly drawn) [Compound 4H, N-[1-(2-naphthyl)ethyl]-1-phenylethylamine]
% activity ([1]; 33 ng/mL): 37%
% activity ([1]; 330 ng/mL): 77%
EC50 [2]: ≥ 3 µM

Structure (SMILES): COc1cccc([C@@H](C)NCCCc2cccc(F)c2)c1 [Compound 4N]
% activity ([1]; 33 ng/mL): 65%
% activity ([1]; 330 ng/mL): 100%
EC50 [2]: 0.8 µM

Structure (SMILES): C[C@@H](NCc1ccc2ccccc2c1)c1cccc2ccccc12 [Compound 9C]
% activity ([1]; 33 ng/mL): 82%
% activity ([1]; 330 ng/mL): 104%
EC50 [2]: 0.6 µM

Structure (SMILES): CC(C)C(N[C@H](C)c1cccc2ccccc12)c1ccc2ccccc2c1 (stereo partly drawn) [Compound 10F]
% activity ([1]; 33 ng/mL): 84%
% activity ([1]; 330 ng/mL): 96%
EC50 [2]: 0.89 µM

EC50 [2]: 0.11 µM
Structure (SMILES): C[C@@H](NCCCc1ccccc1Cl)c1cccc2ccccc12 [Compound 12Z, N-3-(2-chlorophenyl)-1-propyl-(R)-1-(1-naphthyl) ethylamine hydrochloride]

Structure (SMILES): CCCOc1ccc(CN[C@H](C)c2cccc3ccccc23)cc1 [Compound 13Q]
% activity ([1]; 33 ng/mL): 46%
% activity ([1]; 330 ng/mL): 95%
EC50 [2]: ~0.8 µM

% activity ([1]; 33 ng/mL): 87%
% activity ([1]; 330 ng/mL): 102%
EC50 [2]: < 0.13 µM
Structure (SMILES): C[C@@H](NCc1ccc(C(F)(F)F)cc1)c1cccc2ccccc12 [Compound 13S]

Structure (SMILES): C[C@@H](NCc1ccc2c(c1)OCCO2)c1cccc2ccccc12 [Compound 13X]
% activity ([1]; 33 ng/mL): 65%
% activity ([1]; 330 ng/mL): 102%
EC50 [2]: < 0.75 µM

EC50 [2]: 1.7 µM
Structure (SMILES): COc1ccc([C@H](C)N[C@H](C)c2cccc3ccccc23)cc1 [Compound 14V]

Structure (SMILES): COc1cccc(C(C)NC(C)c2cccc3ccccc23)c1 (stereo not drawn) [Compound 14Y]
% activity ([1]; 33 ng/mL): 73%
% activity ([1]; 330 ng/mL): 109%
EC50 [2]: 0.38 µM

Structure (SMILES): C[C@@H](NCc1ccc(C(C)(C)C)cc1)c1cccc2ccccc12 [Compound 15G]
% activity ([1]; 33 ng/mL): 80%
% activity ([1]; 330 ng/mL): 113%
EC50 [2]: ~0.5 µM

Structure (SMILES): COc1ccc(CN[C@H](C)c2cccc3ccccc23)cc1C [Compound 16Q]
% activity ([1]; 33 ng/mL): 88%
% activity ([1]; 330 ng/mL): 110%
EC50 [2]: 0.04 µM

Structure (SMILES): COc1ccc(CN[C@H](C)c2cccc3ccccc23)cc1F [Compound 16T]
% activity ([1]; 33 ng/mL): 88%
% activity ([1]; 330 ng/mL): 97%
EC50 [2]: 0.04 µM

Structure (SMILES): Cc1ccc(CN[C@H](C)c2cccc3ccccc23)cc1C [Compound 16V]
% activity ([1]; 33 ng/mL): 102%
% activity ([1]; 330 ng/mL): 114%
EC50 [2]: < 0.13 µM

Structure (SMILES): CSc1ccc(CN[C@H](C)c2cccc3ccccc23)cc1 [Compound 16X]
% activity ([1]; 33 ng/mL): 96%
% activity ([1]; 330 ng/mL): 111%
EC50 [2]: 0.1 µM

Structure (SMILES): COc1ccc([C@@H](C)N[C@H](C)c2cccc3ccccc23)cc1C.Cl [Compound 17P, (R)-N-(1-(4-Methoxy-3-methylphenyl)ethyl)-(R)-1-(1-naphthyl)ethylamine hydrochloride]
% activity ([1]; 33 ng/mL): 86%
% activity ([1]; 330 ng/mL): 101%
EC50 [2]: 0.04 µM

Structure (SMILES): COc1ccc([C@@H](C)N[C@H](C)c2cccc3ccccc23)cc1Cl [Compound 17X, (R,R)-N-(1-Ethyl-4'-methoxy-3'-chlorophenyl)-1-(1-naphthylethyl) amine]
% activity ([1]; 33 ng/mL): 93%
% activity ([1]; 330 ng/mL): 105%
EC50 [2]: 0.02 µM

EC50 [2]: < 1 µM
Structure (SMILES): COc1cccc([C@@H](C)NC2CCN(Cc3ccccc3)CC2)c1 [Compound 20F]

Structure (SMILES): COc1ccc(CCCN[C@H](C)c2cccc(OC)c2)cc1 [Compound 20I]
% activity ([1]; 33 ng/mL): 52%
% activity ([1]; 330 ng/mL): 87%
EC50 [2]: > 1 µM

Structure (SMILES): COc1cccc([C@@H](C)NCCCc2ccc(OC)c(OC)c2)c1 [Compound 20J]
% activity ([1]; 33 ng/mL): 48%
% activity ([1]; 330 ng/mL): 80%
EC50 [2]: > 3 µM

EC50 [2]: 4.2 µM
Structure (SMILES): CCC(CCc1ccccc1)NC(C)c1cccc(OC)c1 (stereo not drawn) [Compound 20S]

Structure (SMILES): COc1cccc([C@@H](C)N[C@H](C)CCc2ccccc2)c1 [Compound 21D, (R,R)-N-(4-phenyl-2-butyl)-1-(3-methoxyphenyl)ethylamine]
% activity ([1]; 33 ng/mL): 75%
% activity ([1]; 330 ng/mL): 104%
EC50 [2]: 3 µM

Structure (SMILES): C[C@H](CCc1ccccc1)N[C@H](C)c1cccc2ccccc12 [Compound 21F, (R,R)-N-(4-phenyl-2-butyl)-1-(1-naphthyl)etbylamine]
% activity ([1]; 33 ng/mL): 85%
% activity ([1]; 330 ng/mL): 109%
EC50 [2]: 0.38 µM

Structure (SMILES): C[C@@H](CCc1ccccc1)N[C@H](C)c1cccc2ccccc12 [Compound 21G]
% activity ([1]; 33 ng/mL): 63%
% activity ([1]; 330 ng/mL): 88%
EC50 [2]: 1.1 µM

EC50 [2]: > 2 µM
Structure (SMILES): C[C@H](CCc1cccc(C(F)(F)F)c1)N[C@@H](C)c1cccc2ccccc12 [Compound 25C, (S,R)-N-[4-(3-trifluoromethylphenyl)-2-butyl]-1-(1-naphthyl)ethylamine]

EC50 [2]: 0.019 µM
Structure (SMILES): C[C@H](CCc1cccc(C(F)(F)F)c1)N[C@H](C)c1cccc2ccccc12 [Compound 25D, (R,R)-N-[4-(3-trifluoromethylphenyl)-2-butyl]-1-(1-naphthyl)ethylamine]

Structure (SMILES): COc1ccc([C@H](C)N[C@H](C)c2cccc3ccccc23)cc1C [Compound 25U]
% activity ([1]; 33 ng/mL): 95%
% activity ([1]; 330 ng/mL): 107%
% activity ([1]; 3300 ng/mL): 107%

Structure (SMILES): COc1ccc([C@H](C)N[C@@H](C)c2cccc3ccccc23)cc1C [Compound 25V]
% activity ([1]; 33 ng/mL): 43%
% activity ([1]; 330 ng/mL): 59%
% activity ([1]; 3300 ng/mL): 89%

Structure (SMILES): COc1ccc([C@@H](C)N[C@@H](C)c2cccc3ccccc23)cc1C [Compound 25W]
% activity ([1]; 33 ng/mL): 42%
% activity ([1]; 330 ng/mL): 69%
% activity ([1]; 3300 ng/mL): 95%
